Measured values taken from US20260115202A1, “TOPICAL COMPOSITIONS COMPRISING AN ESTETROL COMPONENT AND USE OF SAID COMPOSITIONS FOR WOUND HEALING” (NEURALIS SA, priority 2022, published 2026).
“Also recorded” adds a separate entry of the source.

Tests used:
[1] = system: mouse bone marrow derived macrophages (BMDM); test: M1-polarised murine bone marrow derived macrophages, qPCR of M1 markers; assay type: cell-based; settings: for relative iNOS expression (M1 cell phenotype): formulations and E2/E4
Experimental: Bones were flushed with DMEM supplemented with 1% penicillin/streptomycin and 1% amphotericin B. Bone marrow cells were seeded into 12- or 6-well plates at 1×10^6 cells/ml in DMEM supplemented with 10% FBS and 10% L929-conditioned medium to induce differentiation. After 7-10 days, differentiated macrophages were treated with 10^−7M E2 or E4 in serum free growth medium for 16 hours and polarised to M1-type cells using 100 ng/ml IFN-γ and 1 μg/ml LPS. Following 6- or 24-hours polarisation cells were collected for RNA isolation or flow cytometry.
(§1) Following treatments, human and murine macrophages were collected in Trizol and RNA isolated using the Trizol plus RNA isolation kit (Invitrogen. Thermo Fisher) according to the manufacturer's instructions. RNA was reverse transcribed to cDNA using GoScript reverse transcriptase (Promega). Quantitative real-time PCR was carried out using 2×Takyon SYBR Green mastermix and a CFX Connect thermocycler. Primers for ERα and ERβ were used to explore changes in ER expression after treatment of MEK and MDF with E2 and E4. To investigate the effect of E2 and E4 on MEK differentiation and the expression of ECM proteins by MDF, primers for. Snail, keratin-1 and fibronectin, collagen I. MMP-2 and MMP-9 were used. Primers for INOS. IL-1B and Tnf-α or Ccl17 were used to assess M1/M2 polarisation status. Primers for GAPDH were used to normalise data. Relative gene expression was set to vehicle controls or M0 expression unless otherwise stated.
For follow up experiments murine bone marrow derived monocytes were isolated, differentiated (L929 media) and polarised to a pro-inflammatory M1 phenotype (IFN-γ and LPS: for 6 or 24 hours), and co-treated with either E2 or E4 at the optimal concentration identified in THP1 cells (10^−7: FIG. 24). […] Experiments were then undertaken with murine bone marrow derived monocytes differentiated to macrophages with 30 ng/ml MCSF, as opposed to L929 conditioned media.

[2] = system: murine dermal fibroblasts (MDF); test: qPCR gene expression in murine dermal fibroblasts; assay type: cell-based, mouse; settings: for expression of ERα and ERβ: MDF, 10^−7M, qPCR
From the text: Primary human dermal fibroblasts (HDF) were isolated from abdominal skin or leg skin. Primary neonatal normal human epidermal keratinocytes (NHEK) were purchased (Lonza). Murine dermal fibroblasts (MDF), murine epidermal keratinocytes (MEK), murine peritoneal macrophages and murine bone marrow were isolated from C57/B16 (wt). NDb (Lepr+/−) or Db (Lepr−/−) mice. Fibroblasts were isolated and cultured in DMEM supplemented with 10% heat inactivated FBS. 1% penicillin/streptomycin and 1% amphotericin B. At least 4 days prior to performing assays cells were switched to DMEM supplemented with 5% charcoal-stripped FBS. Following treatments, human and murine macrophages were collected in Trizol and RNA isolated using the Trizol plus RNA isolation kit (Invitrogen. Thermo Fisher) according to the manufacturer's instructions. RNA was reverse transcribed to cDNA using GoScript reverse transcriptase (Promega). Quantitative real-time PCR was carried out using 2×Takyon SYBR Green mastermix and a CFX Connect thermocycler. Primers for ERα and ERβ were used to explore changes in ER expression after treatment of MEK and MDF with E2 and E4. To investigate the effect of E2 and E4 on MEK differentiation and the expression of ECM proteins by MDF, primers for. Snail, keratin-1 and fibronectin, collagen I. MMP-2 and MMP-9 were used. Primers for INOS. IL-1B and Tnf-α or Ccl17 were used to assess M1/M2 polarisation status. Primers for GAPDH were used to normalise data. Relative gene expression was set to vehicle controls or M0 expression unless otherwise stated. In vitro cultured murine fibroblasts were treated with either E2, E4, DPN or PPT at 10^−7M. As previously reported. […] Next, zymography was performed on cell supernatants from HDFs treated with either E2 or E4, to evaluate the effect of E2 and E4 on cell-derived MMP activity. […] The magnitude of the effect (and statistical significance) was greater in cells treated with E4. No MMP9 activity was detected in any treatment group. Finally, we explored the effect of E2 and E4 on murine fibroblast expression of extracellular matrix genes, specifically collagen 1 (Colal) and fibronectin (Fn1) (FIG. 20).

[3] = system: murine dermal fibroblasts (MDFs); test: Scratch wound assay, murine dermal fibroblasts; assay type: cell-based, mouse; settings: MDF, 24 hours, versus vehicle control
From the text: (§2) Primary human dermal fibroblasts (HDF) were isolated from abdominal skin or leg skin. Primary neonatal normal human epidermal keratinocytes (NHEK) were purchased (Lonza). Murine dermal fibroblasts (MDF), murine epidermal keratinocytes (MEK), murine peritoneal macrophages and murine bone marrow were isolated from C57/B16 (wt). NDb (Lepr+/−) or Db (Lepr−/−) mice.
Fibroblasts were isolated and cultured in DMEM supplemented with 10% heat inactivated FBS. 1% penicillin/streptomycin and 1% amphotericin B. At least 4 days prior to performing assays cells were switched to DMEM supplemented with 5% charcoal-stripped FBS.
Cells were seeded into 24 well plates and cultured to form a confluent monolayer, and then scratched with a 1 ml pipette tip. Wells were treated with E2, E4 and/or various estrogen receptor agonists and antagonists. […] A vehicle control containing the equivalent concentration of EtOH and/or DMSO was included, in addition to an untreated negative control. All treatments were diluted to working concentrations in media supplemented with 2% charcoal-stripped FBS. To visualise scratches at the defined endpoint, cells were stained with crystal violet and imaged on a Nikon E400 brightfield microscope. Scratch closure was determined from multiple independent measurements per well.

[4] = system: primary mouse epidermal keratinocytes (MEKs); test: qPCR gene expression in primary mouse epidermal keratinocytes; assay type: cell-based; settings: MEK; for expression of EMT marker Snail: 10^−7M; for expression of ERα and ERβ: particularly at 10^−7M, 24 hours, not statistically significant
Experimental: as §2
(§3) Neonatal HEK were cultured in EpiLife supplemented with […] human keratinocyte growth supplements (HKGS) and 1% penicillin/streptomycin. MEK were cultured in CnT basal medium supplemented with 1% penicillin/streptomycin and 1% amphotericin B.
as §1
Next, we switched to primary mouse epidermal keratinocytes (MEKs) to explore the effect of E2 and E4 on MEK wound-relevant gene expression. […] Snail, following treatment with either E2 or E4 at 10^−7M. […] In general, the observed effects of E2 and E4 on gene expression were reversed by co-treatment with the ER antagonist ICI.

[5] = system: normal human epidermal keratinocytes (NHEKs); test: Scratch wound assay, normal human epidermal keratinocytes; assay type: cell-based; settings: NHEK, 10^−7/10^−8 M range, 15% and 30% HKGS, 24 hours
Experimental: as §2, §3
Cells were seeded into 24 well plates and cultured to form a confluent monolayer, and then scratched with a 1 ml pipette tip. Wells were treated with E2, E4 and/or various estrogen receptor agonists and antagonists. […] A vehicle control containing the equivalent concentration of EtOH and/or DMSO was included, in addition to an untreated negative control. All treatments were diluted to working concentrations in media supplemented with 2% charcoal-stripped FBS. […] Scratch closure was determined from multiple independent measurements per well.
The effects of E2 and E4 on keratinocyte migration where evaluated using primary normal human epidermal keratinocytes (NHEKs).

[6] = L929 differentiated BMDM, M1 polarised 6 or 24 hours, 10^−7, versus vehicle
[7] = L929 differentiated BMDM, M1 polarised
[8] = MCSF differentiated BMDM, M1 polarised
[9] = MCSF differentiated BMDM, M1 polarised, 10^−7M, versus vehicle
[10] = fibroblasts derived from diabetic (db/db) mice
[11] = fibroblasts derived from wild-type mice

Row | SMILES | expression of M1 markers (iNOS, IL1-β, Tnf-α) [1, 6] | relative iNOS expression (M1 cell phenotype) [1, 7] | expression of M1 marker iNOS [1, 8] | expression of M1 markers (iNOS, IL1-β, Tnf-α) [1, 9] | expression of ERα and ERβ [2] | expression of collagen 1 and fibronectin (Fn1) [2, 10] | expression of collagen 1 and fibronectin (Fn1) [2, 11] | scratch closure [3] | expression of differentiation marker Keratin 1 (Krt1) [4] | expression of EMT marker Snail [4] | expression of ERα and ERβ [4] | scratch wound closure [5]
1 | C[C@]12CC[C@@H]3c4ccc(O)cc4CC[C@H]3[C@@H]1CC[C@@H]2O [Formulation E2, 17β-estradiol, reference compound] | trend toward decreased expression of a range of M1 markers | significantly dampened the M1 cell phenotype | statistically significant reduction in the M1 marker INOS | strong trend towards reduced expression | upregulated expression of both ERα and ERβ | trend towards increased expression of both Co1a1 and Fn1 | no effect was observed following treatment | significantly increased scratch closure compared to vehicle control treatment | trend towards downregulation | statistically significant induction | strong trend towards induction of both ERα and ERβ | strong trend to faster wound closure
2 | C[C@]12CC[C@@H]3c4ccc(O)cc4CC[C@H]3[C@@H]1[C@@H](O)[C@@H](O)[C@@H]2O [Formulation E4, 1,3,5 (10)-estratrien-3,15alpha, 16alpha, 17beta-tetrol] | trend toward decreased expression of a range of M1 markers | significantly dampened the M1 cell phenotype | statistically significant reduction in the M1 marker INOS | strong trend towards reduced expression | increases expression of both ERα and ERβ | trend towards increased expression of both Co1a1 and Fn1; also recorded: reached statistical significance for fibronectin (Fn1) | no effect was observed following treatment | significantly increased scratch closure compared to vehicle control treatment | trend towards downregulation | statistically significant induction | strong trend towards increased expression of both ERα and ERβ | strong trend to faster wound closure
